# Columns and labels:
# [1] = tested on: allogeneic (Balb/c) islets in streptozotocin-diabetic C57BL/6 mice; experiment: Allogeneic islet transplantation under the kidney capsule of diabetic mice; type: in vivo, mouse; settings: rapamycin injections 0.2 mg/kg daily 15 doses, without SA-FasL-engineered microgels
# Protocol: Islet transplantation. BALB/c pancreatic islets were isolated using Liberase TL as a digestive enzyme (Roche Life Science) and purified by a Ficoll density gradient as previously published. […] To biotinylate islets, overnight cultured islets were incubated in 5 μM EZ-Link Sulfo-NHS-LC-Biotin (Thermo Scientific) for 30 min at room temperature, washed extensively with PBS to remove unbound biotin solution. […] Approximately, 500 islets were co-transplanted with 1000 microgels into streptozotocin diabetic (200 mg/kg i.p., diabetes (>250 mg/dL) confirmed on two consecutive days) C57BL/6 or B6.129(Cg)-Foxp3^tm3(DTR/GFP)Ayr (C57BL/6.FoxP3^EGFP/DTR) recipients, where indicated. For Treg depletion, islet graft recipients were injected i.p. with diphtheria toxin (50 μg/kg body weight) and depletion was confirmed 3 days later in peripheral blood lymphocytes using flow cytometry. Selected groups were also treated i.p. with rapamycin at 0.2 mg/kg daily for 15 doses starting the day of transplantation. Unmodified BALB/c islets co-transplanted with unmodified PEG gels were used as controls. Animals were monitored for blood glucose and >250 mg/dL blood glucose levels for two consecutive daily measurements were considered rejected. […] Blood glucose levels were assessed by tail prick before injection and 10, 20, 30, 60, 90, 120 minutes after injection. […]
# avidin = avidin (Gallus gallus, UniProt P02701); settings: cited from earlier work
# SA = SA (Streptomyces avidinii, UniProt P22629); settings: cited from earlier work
# SA, sequence (P22629 25-183): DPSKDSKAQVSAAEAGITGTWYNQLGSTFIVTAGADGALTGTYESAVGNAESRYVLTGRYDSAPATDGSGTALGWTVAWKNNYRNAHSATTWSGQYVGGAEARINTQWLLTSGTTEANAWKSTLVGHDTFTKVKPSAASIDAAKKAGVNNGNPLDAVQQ
# avidin, sequence (P02701 25-152): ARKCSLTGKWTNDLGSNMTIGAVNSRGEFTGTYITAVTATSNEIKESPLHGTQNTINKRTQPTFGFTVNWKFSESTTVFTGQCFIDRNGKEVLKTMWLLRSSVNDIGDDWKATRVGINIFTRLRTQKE
structure (smiles),measurement,setting,value
CO[C@H]1C[C@@H]2CC[C@@H](C)[C@@](O)(O2)C(=O)C(=O)N2CCCC[C@H]2C(=O)O[C@H]([C@H](C)C[C@@H]2CC[C@@H](O)[C@H](OC)C2)CC(=O)[C@H](C)/C=C(\C)[C@@H](O)[C@@H](OC)C(=O)[C@H](C)C[C@H](C)/C=C/C=C/C=C/1C [rapamycin],median survival time (MST) of islet grafts,[1],36 days
O=C(O)CCCC[C@@H]1SC[C@@H]2NC(=O)N[C@@H]21 [biotin],affinity for avidin,avidin,10^15 M^−1
same,affinity for SA,SA,10^13 M^−1

# Reference: patent publication US12673073B2, “FasL-engineered biomaterials with immunomodulatory function” (University of Louisville Research Foundation, Inc., priority 2017, dated 2026)
